Measured values published in patent US7432397B2, “Imaging compounds” (Hammersmith Imanet Ltd., priority 2002, dated 2008).
Marks after values point to notes of the source that are not given here.

Assay: Biodistribution of radioactivity in rat tissues after intravenous injection
Type: in vivo
Details: for Radioactivity in Entorhinal cortex / Radioactivity in Fat / Radioactivity in Heart (ventricle) / Radioactivity in Hippocampus / Radioactivity in Hypothalamus / Radioactivity in Inferior collicull / Radioactivity in Kidney / Radioactivity in Large intestine / Radioactivity in Lge. intestine content / Radioactivity in Liver / Radioactivity in Lung / Radioactivity in Medulla with Pons / Radioactivity in Olfactory bulbs / Radioactivity in Olfactory tubercles / Radioactivity in Prefrontal cortex / Radioactivity in Skeletal muscle / Radioactivity in Skin / Radioactivity in Sm. intestine content / Radioactivity in Small intestine / Radioactivity in Somatosensory cortex / Radioactivity in Spleen / Radioactivity in Stomach / Radioactivity in Striata / Radioactivity in Superior collicull / Radioactivity in Testis / Radioactivity in Thalamus / Radioactivity in Urine / Radioactivity in Visual cortex / Radioactivity in Plasma / Radioactivity in Whole blood / Radioactivity in Cerebellum: i.v.; for Radioactivity in Plasma / Radioactivity in Whole blood: composite curve of 9 rats
Description: Sixteen adult male Sprague-Dawley rats (body weight 250-320 g: mean±SD=288±25 g) were used in 5 separate experiments. Each rat was injected with ˜13 MBq Compound 1, at a specific activity of […], via a previously catheterised tail vein. The associated stable compound was 0.5±0.2 nmol/kg. Discrete samples of arterial blood were collected from 9 of the rats via a previously catheterised tail artery.
Tissues were sampled post-mortem using an established protocol, as described in Hirani et al, Synapse 42:164-176 (2001). The radioactivity concentration data obtained at 12 times up to 90 min after radioligand injection were normalised for both amount injected and body weight, giving:—‘uptake units’=(cpm/g tissue)/(injected cpm/g body weight).

[1] = period 5 to 90 min after intravenous injection

CSc1cccc(N([11CH3])C(=N)Nc2cc(SC)ccc2Cl)c1 [Compound 1, (N-(2-chloro-5-(methylthio)phenyl)-N′-(3-methylthio)phenyl)-N′-[N-methyl-^11C]-methylguanidine]
Radioactivity in Entorhinal cortex (30 min): 1.31 Uptake Units
Radioactivity in Fat (30 min): 0.71 Uptake Units
Radioactivity in Heart (ventricle) (30 min): 0.99 Uptake Units
Radioactivity in Hippocampus (30 min): 1.32 Uptake Units
Radioactivity in Hypothalamus (30 min): 1.22 Uptake Units
Radioactivity in Inferior collicull (30 min): 1.16 Uptake Units
Radioactivity in Kidney (30 min): 2.85 Uptake Units
Radioactivity in Large intestine (30 min): 1.11 Uptake Units
Radioactivity in Lge. intestine content (30 min): 0.36 Uptake Units
Radioactivity in Liver (30 min): 7.84 Uptake Units
Radioactivity in Lung (30 min): 7.48 Uptake Units
Radioactivity in Medulla with Pons (30 min): 1.26 Uptake Units
Radioactivity in Olfactory bulbs (30 min): 1.10 Uptake Units
Radioactivity in Olfactory tubercles (30 min): 1.24 Uptake Units
Radioactivity in Prefrontal cortex (30 min): 1.51 Uptake Units
Radioactivity in Skeletal muscle (30 min): 0.68 Uptake Units
Radioactivity in Skin (30 min): 0.75 Uptake Units
Radioactivity in Sm. intestine content (30 min): 7.14 Uptake Units
Radioactivity in Small intestine (30 min): 2.30 Uptake Units
Radioactivity in Somatosensory cortex (30 min): 1.37 Uptake Units
Radioactivity in Spleen (30 min): 4.75 Uptake Units
Radioactivity in Stomach (30 min): 1.07 Uptake Units
Radioactivity in Striata (30 min): 1.32 Uptake Units
Radioactivity in Superior collicull (30 min): 1.19 Uptake Units
Radioactivity in Testis (30 min): 0.76 Uptake Units
Radioactivity in Thalamus (30 min): 1.43 Uptake Units
Radioactivity in Urine (30 min): 37.5 Uptake Units
Radioactivity in Visual cortex (30 min): 1.55 Uptake Units
Radioactivity in Plasma (30 min): 0.18 Uptake Units
Radioactivity in Whole blood (30 min): 0.19 Uptake Units
Radioactivity in Cerebellum (40 min): 0.62 Uptake Units
Radioactivity in Entorhinal cortex (40 min): 0.85 Uptake Units
Radioactivity in Fat (40 min): 0.45 Uptake Units
Radioactivity in Heart (ventricle) (40 min): 0.63 Uptake Units
Radioactivity in Hippocampus (40 min): 0.86 Uptake Units
Radioactivity in Hypothalamus (40 min): 0.76 Uptake Units
Radioactivity in Inferior collicull (40 min): 0.64 Uptake Units
Radioactivity in Kidney (40 min): 1.79 Uptake Units
Radioactivity in Large intestine (40 min): 0.66 Uptake Units
Radioactivity in Lge. intestine content (40 min): 0.23 Uptake Units
Radioactivity in Liver (40 min): 5.76 Uptake Units
Radioactivity in Lung (40 min): 3.99 Uptake Units
Radioactivity in Medulla with Pons (40 min): 0.80 Uptake Units
Radioactivity in Olfactory bulbs (40 min): 0.64 Uptake Units
Radioactivity in Olfactory tubercles (40 min): 0.72 Uptake Units
Radioactivity in Prefrontal cortex (40 min): 0.93 Uptake Units
Radioactivity in Skeletal muscle (40 min): 0.61 Uptake Units
Radioactivity in Skin (40 min): 0.39 Uptake Units
Radioactivity in Sm. intestine content (40 min): 3.68 Uptake Units
Radioactivity in Small intestine (40 min): 1.09 Uptake Units
Radioactivity in Somatosensory cortex (40 min): 0.88 Uptake Units
Radioactivity in Spleen (40 min): 2.83 Uptake Units
Radioactivity in Stomach (40 min): 0.45 Uptake Units
Radioactivity in Striata (40 min): 0.84 Uptake Units
Radioactivity in Superior collicull (40 min): 0.65 Uptake Units
Radioactivity in Testis (40 min): 0.74 Uptake Units
Radioactivity in Thalamus (40 min): 0.92 Uptake Units
Radioactivity in Urine (40 min): 27.5 Uptake Units
Radioactivity in Visual cortex (40 min): 0.89 Uptake Units
Radioactivity in Plasma (40 min): 0.16 Uptake Units
Radioactivity in Whole blood (40 min): 0.16 Uptake Units
Radioactivity in Cerebellum (50 min): 0.55 Uptake Units
Radioactivity in Entorhinal cortex (50 min): 0.75 Uptake Units
Radioactivity in Fat (50 min): 0.49 Uptake Units
Radioactivity in Heart (ventricle) (50 min): 0.50 Uptake Units
Radioactivity in Hippocampus (50 min): 0.73 Uptake Units
Radioactivity in Hypothalamus (50 min): 0.61 Uptake Units
Radioactivity in Inferior collicull (50 min): 0.56 Uptake Units
Radioactivity in Kidney (50 min): 1.68 Uptake Units
Radioactivity in Large intestine (50 min): 0.76 Uptake Units
Radioactivity in Lge. intestine content (50 min): 0.35 Uptake Units
Radioactivity in Liver (50 min): 5.01 Uptake Units
Radioactivity in Lung (50 min): 5.30 Uptake Units
Radioactivity in Medulla with Pons (50 min): 0.70 Uptake Units
Radioactivity in Olfactory bulbs (50 min): 0.58 Uptake Units
Radioactivity in Olfactory tubercles (50 min): 0.65 Uptake Units
Radioactivity in Prefrontal cortex (50 min): 0.80 Uptake Units
Radioactivity in Skeletal muscle (50 min): 0.61 Uptake Units
Radioactivity in Skin (50 min): 0.52 Uptake Units
Radioactivity in Sm. intestine content (50 min): 4.03 Uptake Units
Radioactivity in Small intestine (50 min): 1.19 Uptake Units
Radioactivity in Somatosensory cortex (50 min): 0.71 Uptake Units
Radioactivity in Spleen (50 min): 2.95 Uptake Units
Radioactivity in Stomach (50 min): 0.32 Uptake Units
Radioactivity in Striata (50 min): 0.69 Uptake Units
Radioactivity in Superior collicull (50 min): 0.57 Uptake Units
Radioactivity in Testis (50 min): 0.69 Uptake Units
Radioactivity in Thalamus (50 min): 0.85 Uptake Units
Radioactivity in Urine (50 min): 84.5 Uptake Units
Radioactivity in Visual cortex (50 min): 0.72 Uptake Units
Radioactivity in Plasma (50 min): 0.17 Uptake Units
Radioactivity in Whole blood (50 min): 0.16 Uptake Units
Radioactivity in Cerebellum (60 min): 0.54* Uptake Units
Radioactivity in Entorhinal cortex (60 min): 0.73* Uptake Units
Radioactivity in Fat (60 min): 0.79* Uptake Units
Radioactivity in Heart (ventricle) (60 min): 0.59* Uptake Units
Radioactivity in Hippocampus (60 min): 0.76* Uptake Units
Radioactivity in Hypothalamus (60 min): 0.65* Uptake Units
Radioactivity in Inferior collicull (60 min): 0.54* Uptake Units
Radioactivity in Kidney (60 min): 1.87* Uptake Units
Radioactivity in Large intestine (60 min): 1.03* Uptake Units
Radioactivity in Lge. intestine content (60 min): 0.44* Uptake Units
Radioactivity in Liver (60 min): 5.73* Uptake Units
Radioactivity in Lung (60 min): 4.10* Uptake Units
Radioactivity in Medulla with Pons (60 min): 0.67* Uptake Units
Radioactivity in Olfactory bulbs (60 min): 0.55* Uptake Units
Radioactivity in Olfactory tubercles (60 min): 0.65* Uptake Units
Radioactivity in Prefrontal cortex (60 min): 0.77* Uptake Units
Radioactivity in Skeletal muscle (60 min): 0.49* Uptake Units
Radioactivity in Skin (60 min): 0.46* Uptake Units
Radioactivity in Sm. intestine content (60 min): 6.08* Uptake Units
Radioactivity in Small intestine (60 min): 1.29* Uptake Units
Radioactivity in Somatosensory cortex (60 min): 0.68* Uptake Units
Radioactivity in Spleen (60 min): 2.98* Uptake Units
Radioactivity in Stomach (60 min): 0.66* Uptake Units
Radioactivity in Striata (60 min): 0.67* Uptake Units
Radioactivity in Superior collicull (60 min): 0.54* Uptake Units
Radioactivity in Testis (60 min): 0.89* Uptake Units
Radioactivity in Thalamus (60 min): 0.74* Uptake Units
Radioactivity in Urine (60 min): 24.4* Uptake Units
Radioactivity in Visual cortex (60 min): 0.73* Uptake Units
Radioactivity in Plasma (60 min): 0.18 Uptake Units
Radioactivity in Whole blood (60 min): 0.17 Uptake Units
Radioactivity in Cerebellum (70 min): 0.38* Uptake Units
Radioactivity in Entorhinal cortex (70 min): 0.41 Uptake Units
Radioactivity in Fat (70 min): 0.55* Uptake Units
Radioactivity in Heart (ventricle) (70 min): 0.52* Uptake Units
Radioactivity in Hippocampus (70 min): 0.54* Uptake Units
Radioactivity in Hypothalamus (70 min): 0.33 Uptake Units
Radioactivity in Inferior collicull (70 min): 0.39 Uptake Units
Radioactivity in Kidney (70 min): 1.88* Uptake Units
Radioactivity in Large intestine (70 min): 0.76* Uptake Units
Radioactivity in Lge. intestine content (70 min): 0.57* Uptake Units
Radioactivity in Liver (70 min): 6.02* Uptake Units
Radioactivity in Lung (70 min): 4.62* Uptake Units
Radioactivity in Medulla with Pons (70 min): 0.39 Uptake Units
Radioactivity in Olfactory bulbs (70 min): 0.31 Uptake Units
Radioactivity in Olfactory tubercles (70 min): 0.36 Uptake Units
Radioactivity in Prefrontal cortex (70 min): 0.52* Uptake Units
Radioactivity in Skeletal muscle (70 min): 0.44* Uptake Units
Radioactivity in Skin (70 min): 0.47* Uptake Units
Radioactivity in Sm. intestine content (70 min): 5.41* Uptake Units
Radioactivity in Small intestine (70 min): 1.34* Uptake Units
Radioactivity in Somatosensory cortex (70 min): 0.38 Uptake Units
Radioactivity in Spleen (70 min): 2.97* Uptake Units
Radioactivity in Stomach (70 min): 0.96 Uptake Units
Radioactivity in Striata (70 min): 0.46* Uptake Units
Radioactivity in Superior collicull (70 min): 0.28 Uptake Units
Radioactivity in Testis (70 min): 0.74* Uptake Units
Radioactivity in Thalamus (70 min): 0.40 Uptake Units
Radioactivity in Urine (70 min): 16.9* Uptake Units
Radioactivity in Visual cortex (70 min): 0.38 Uptake Units
Radioactivity in Plasma (70 min): 0.20 Uptake Units
Radioactivity in Whole blood (70 min): 0.18 Uptake Units
Radioactivity in Cerebellum (90 min): 0.32* Uptake Units
Radioactivity in Entorhinal cortex (90 min): 0.38* Uptake Units
Radioactivity in Fat (90 min): 0.51* Uptake Units
Radioactivity in Heart (ventricle) (90 min): 0.40* Uptake Units
Radioactivity in Hippocampus (90 min): 0.46* Uptake Units
Radioactivity in Hypothalamus (90 min): 0.35* Uptake Units
Radioactivity in Inferior collicull (90 min): 0.36 Uptake Units
Radioactivity in Kidney (90 min): 1.50* Uptake Units
Radioactivity in Large intestine (90 min): 0.61* Uptake Units
Radioactivity in Lge. intestine content (90 min): 0.66* Uptake Units
Radioactivity in Liver (90 min): 3.85* Uptake Units
Radioactivity in Lung (90 min): 2.62* Uptake Units
Radioactivity in Medulla with Pons (90 min): 0.39* Uptake Units
Radioactivity in Olfactory bulbs (90 min): 0.28* Uptake Units
Radioactivity in Olfactory tubercles (90 min): 0.36* Uptake Units
Radioactivity in Prefrontal cortex (90 min): 0.45* Uptake Units
Radioactivity in Skeletal muscle (90 min): 0.35* Uptake Units
Radioactivity in Skin (90 min): 0.40* Uptake Units
Radioactivity in Sm. intestine content (90 min): 3.66* Uptake Units
Radioactivity in Small intestine (90 min): 0.93* Uptake Units
Radioactivity in Somatosensory cortex (90 min): 0.43* Uptake Units
Radioactivity in Spleen (90 min): 2.07* Uptake Units
Radioactivity in Stomach (90 min): 0.34* Uptake Units
Radioactivity in Striata (90 min): 0.41* Uptake Units
Radioactivity in Superior collicull (90 min): 0.23 Uptake Units
Radioactivity in Testis (90 min): 0.79* Uptake Units
Radioactivity in Thalamus (90 min): 0.42* Uptake Units
Radioactivity in Urine (90 min): 46.4* Uptake Units
Radioactivity in Visual cortex (90 min): 0.44* Uptake Units
Radioactivity in Plasma (90 min): 0.21 Uptake Units
Radioactivity in Whole blood (90 min): 0.18 Uptake Units
radioactivity level in plasma [1]: ~0.2 uptake units
radioactivity level in whole blood [1]: ~0.2 uptake units
